From patent publication US8580965B2, “Substituted sulfonamide compounds” (Gruenenthal GmbH, priority 2006, dated 2013)

Biological target: T1, human B1R receptor (bradykinin 1 receptor) (Homo sapiens, UniProt P46663)
T1 construct: host or cells: CHO K1 cells (hB1R cells)
T1 sequence (P46663 1-353): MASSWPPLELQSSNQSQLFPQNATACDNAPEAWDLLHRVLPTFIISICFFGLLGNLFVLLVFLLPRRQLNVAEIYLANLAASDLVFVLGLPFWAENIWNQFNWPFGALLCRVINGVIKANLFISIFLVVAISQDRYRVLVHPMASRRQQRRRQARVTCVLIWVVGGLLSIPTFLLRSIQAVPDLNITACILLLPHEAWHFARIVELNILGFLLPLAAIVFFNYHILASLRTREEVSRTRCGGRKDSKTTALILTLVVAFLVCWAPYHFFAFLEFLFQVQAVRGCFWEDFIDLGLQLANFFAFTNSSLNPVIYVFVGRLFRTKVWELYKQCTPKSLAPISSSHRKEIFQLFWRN
Assay: FLIPR Ca2+ assay (Fluo-4) on CHO K1 cells stably transfected with the human B1R gene; % activation and % inhibition at 10 μM
Format: cell-based
Conditions: CHO-K1, test substance 10 μM; CHO K1 hB1R cells; Ca2+ inflow after 0.5 nM Lys-Des-Arg9-bradykinin; read-out: B1R antagonism, human [10 μM] % inhibition
Protocol: The agonistic or antagonistic action of substances can be quantified on the bradykinin receptor 1 (B1R) of the species human and rat with ectopically expressing cell lines (CHO K1 cells) and with the aid of a Ca^2+-sensitive dye (Fluo-4) using a fluorescent imaging plate reader (FLIPR). The indication in % activation is based on the Ca^2+ signal after addition of Lys-Des-Arg^9-bradykinin (0.5 nM) or Des-Arg^9-bradykinin (100 nM). Antagonists result in a suppression of the Ca^2+ influx following administration of the agonist. The % inhibition in comparison with the maximum achievable inhibition is indicated.
Functional Investigation on the Bradykinin 1 Receptor (B1R)
The agonistic or antagonistic action of substances can be determined on the bradykinin 1 receptor (B1R) of the human and rat species with the following assay. According to this assay, the Ca^2+ inflow through the channel is quantified with the aid of a Ca^2+-sensitive dyes (Fluo-4 type, Molecular Probes Europe BV, Leiden, The Netherlands) in a fluorescent imaging plate reader (FLIPR, Molecular Devices, Sunnyvale, USA).
Chinese Hamster Ovary cells (CHO K1 cells) which are stably transfected with the human B1R gene (hB1R cells, Euroscreen s.a., Gosselies, Belgium) or the B1R gene of the rat (rB1R cells, Axxam, Milan, Italy) are used. For functional investigations, these cells are plated-out on black 96-well plates with a clear base (BD Biosciences, Heidelberg, Germany) in a density of 20,000-25,000 cells/well. Overnight, the cells are incubated at 37° C. and 5% CO2 in culture medium (hB1R cells: Nutrient Mixture Ham's F12, Gibco Invitrogen GmbH, Karlsruhe, Germany; rB1R cells: D-MEM/F12, Gibco Invitrogen, Karlsruhe, Germany) with 10 vol. % FBS (foetal bovine serum, Gibco Invitrogen GmbH, Karlsruhe, Germany). On the following day, the cells are loaded with 2.13 μM Fluo-4 (Molecular Probes Europe BV, Leiden, The Netherlands) in HBSS buffer (Hank's buffered saline solution, Gibco Invitrogen GmbH, Karlsruhe, Germany) […] (Sigma-Aldrich, Taufkirchen, Germany) and 10 mM HEPES (Sigma-Aldrich, Taufkirchen, Germany) for 60 min at 37° C. The plates are subsequently washed 2× with HBSS buffer, and HBSS buffer which additionally contains 0.1% BSA (bovine serum albumin; Sigma-Aldrich, Taufkirchen, Germany), 5.6 mM glucose and 0.05% gelatine (Merck KGaA, Darmstadt, Germany) is added. After a further incubation of 20 minutes at room temperature, the plates are inserted into the FLIPR for Ca^2+ measurement. The Ca^2+-dependent fluorescence is measured here before and after addition of substances (λex=488 nm, λem=540 nm). The quantification is effected by measurement of the highest fluorescence intensity (FC, fluorescence counts) over time.
The FLIPR protocol comprises 2 additions of substance. Test substances (10 μM) are first pipetted on to the cells and the Ca^2+ inflow is compared with the control (hB1R: Lys-Des-Arg^9-bradykinin 0.5 nM; rB1R: Des-Arg^9-bradykinin 100 nM). The value in % activation based on the Ca^2+ signal after addition of Lys-Des-Arg^9-bradykinin (0.5 nM) or Des-Arg^9-bradykinin (100 nM) is obtained therefrom. After incubation for 10 minutes, 0.5 nM Lys-Des-Arg^9-bradykinin (hB1R) or 100 nM Des-Arg^9-bradykinin (rB1R) are applied and the inflow of Ca^2+ is likewise determined. Antagonists lead to a suppression of the Ca^2+ inflow. % inhibition compared with the maximum inhibition which can be achieved is calculated. The compounds show a good activity on the human and on the rat receptor. The following data were determined by way of example: […]

Compound | inhibition at 10 µM [%]
COc1cc(C)c(S(=O)(=O)N2CCCC(OCC(=O)N3CCC(O)(c4ccccn4)CC3)C2)c(C)c1C (stereo not drawn) [Example 55, 1-(4′-hydroxy-3′,4′,5′,6′-tetrahydro-2′H-[2,4′]bipyridinyl-1′-yl)-2-[1-(4-methoxy-2,3,6-trimethyl-phenylsulfonyl)-piperidin-3-yloxy]-ethanone] | -13.2
COc1cc(C)c(S(=O)(=O)N2CCC(CCOCC(=O)N3CCC(O)(c4ccccn4)CC3)CC2)c(C)c1C [Example 45, 1-(4′-hydroxy-3′,4′,5′,6′-tetrahydro-2′H-[2,4′]bipyridinyl-1′-yl)-2-{2-[1-(4-methoxy-2,3,6-trimethyl-phenylsulfonyl)-piperidin-4-yl]-ethoxy}-ethanone] | -2.48
O=C(COCC1CCCN1S(=O)(=O)c1ccc(Cl)c(Cl)c1)N1CCC(O)(c2ccccn2)CC1 (stereo not drawn) [Example 36, 2-[1-(3,4-dichloro-phenylsulfonyl)-pyrrolidin-2-ylmethoxy]-1-(4′-hydroxy-3′,4′,5′,6′-tetrahydro-2′H-[2,4′]bipyridinyl-1′-yl)-ethanone] | 3.64
CN(CCOCC(=O)N1CCC(O)(Cc2ccccc2)CC1)S(=O)(=O)c1cccc(C(F)(F)F)c1 [Example 38, N-{2-[2-(4-benzyl-4-hydroxy-piperidin-1-yl)-2-oxo-ethoxy]-ethyl}-N-methyl-3-trifluoromethyl-phenylsulfonamide] | 3.28
COc1ccc(S(=O)(=O)N2CCCCC2COCC(=O)N2CCC(O)(Cc3ccccc3)CC2)cc1 (stereo not drawn) [Example 35, 1-(4-benzyl-4-hydroxy-piperidin-1-yl)-2-[1-(4-methoxy-phenylsulfonyl)-piperidin-2-ylmethoxy]-ethanone] | 5.08
COc1cc(C)c(S(=O)(=O)N2CCC(OCCC(=O)N3CCC(O)(c4ccc(Cl)cc4)CC3)C2)c(C)c1 (stereo not drawn) [Example 186, 1-(4-(4-chlorophenyl)-4-hydroxypiperidin-1-yl)-3-(1-(4-methoxy-2,6-dimethylphenylsulfonyl)pyrrolidin-3-yloxy)propan-1-one] | 99.8
COc1cc(C)c(S(=O)(=O)N2CCCCC2COCCC(=O)N2CCC(O)(c3ccc(Br)cc3)CC2)c(C)c1 (stereo not drawn) [Example 182, 1-(4-(4-bromophenyl)-4-hydroxypiperidin-1-yl)-3-((1-(4-methoxy-2,6-dimethylphenylsulfonyl)piperidin-2-yl)methoxy)propan-1-one] | 80
COc1cc(C)c(S(=O)(=O)N2CCCC(OCCC(=O)N3CCC(O)(c4ccc(Cl)cc4)CC3)C2)c(C)c1 (stereo not drawn) [Example 184, 1-(4-(4-chlorophenyl)-4-hydroxypiperidin-1-yl)-3-(1-(4-methoxy-2,6-dimethylphenylsulfonyl)piperidin-3-yloxy)propan-1-one] | 56.1

Continued, values first:

inhibition at 10 µM [%] | Compound
54.2 | COc1cc(C)c(S(=O)(=O)N2CCC(OCCC(=O)N3CCC(O)(Cc4ccccc4)CC3)C2)c(C)c1 (stereo not drawn) [Example 189, 1-(4-benzyl-4-hydroxypiperidin-1-yl)-3-(1-(4-methoxy-2,6-dimethylphenylsulfonyl)pyrrolidin-3-yloxy)propan-1-one]
-13.1 | O=C(COC1CCN(S(=O)(=O)c2ccccc2)CC1)N1CCC(O)(c2ccccn2)CC1 [Example 54, 2-(1-phenylsulfonyl-piperidin-4-yloxy)-1-(4′-hydroxy-3′,4′,5′,6′-tetrahydro-2′H-[2,4′]bipyridinyl-1′-yl)-ethanone]
20.2 | O=C(COC1CCN(S(=O)(=O)c2ccccc2)C1)N1CCC(O)(Cc2ccccc2)CC1 (stereo not drawn) [Example 22, 2-(1-phenylsulfonyl-pyrrolidin-3-yloxy)-1-(4-benzyl-4-hydroxy-piperidin-1-yl)-ethanone]
70.9 | COc1cc(C)c(S(=O)(=O)N2CCCC(OCC(=O)N3CCC(O)(Cc4ccccc4)CC3)C2)c(C)c1C (stereo not drawn) [Example 11, 1-(4-benzyl-4-hydroxy-piperidin-1-yl)-2-[1-(4-methoxy-2,3,6-trimethyl-phenylsulfonyl)-piperidin-3-yloxy]-ethanone]
